Measured values as given in PubChem BioAssay AID248 (DTP/NCI, 2004).
Where “and” joins values, the source holds several entries; their conditions need not be identical. Identical values can stand only once. Toxic doses and inconclusive results are not listed. Cut-off read from the data, not from the text of the source: active = T/C of 150% or more; inactive = T/C below 125%.

Tested on: L1210 leukemia ip in BDF1 mice, survival T/C
Experiment: NCI In Vivo Anticancer Drug Screen. Data for tumor model L1210 Leukemia (intraperitoneal) in B6D2F1 (BDF1) mice
Settings: endpoint: mean survival time, higher = longer survival
Summary of the method: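 Transplantable tumor model; survival measured in treated vs vehicle control mice. Value = treated/control.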

[1] = dose: 100.0 mg/kg/injection, schedule: Q04DX003 (ip), vehicle: saline with Tween-80
[2] = dose: 200.0 mg/kg/injection, schedule: Q04DX003 (ip), vehicle: saline with Tween-80
[3] = dose: 400.0 mg/kg/injection, schedule: Q04DX003 (ip), vehicle: saline with Tween-80
[4] = dose: 100.0 mg/kg/injection, schedule: Q01DX009 (ip), vehicle: saline
[5] = dose: 100.0 mg/kg/injection, schedule: Q04DX002 (ip), vehicle: saline
[6] = dose: 100.0 mg/kg/injection, schedule: Q04DX003 (ip), vehicle: saline
[7] = dose: 200.0 mg/kg/injection, schedule: Q04DX002 (ip), vehicle: saline
[8] = dose: 200.0 mg/kg/injection, schedule: Q04DX003 (ip), vehicle: saline
[9] = dose: 400.0 mg/kg/injection, schedule: Q04DX003 (ip), vehicle: saline
[10] = dose: 6.25 mg/kg/injection, schedule: Q01DX009 (ip), vehicle: saline with Tween-80
[11] = dose: 12.5 mg/kg/injection, schedule: Q01DX009 (ip), vehicle: saline with Tween-80
[12] = dose: 25.0 mg/kg/injection, schedule: Q01DX009 (ip), vehicle: saline with Tween-80
[13] = dose: 200.0 mg/kg/injection, schedule: Q01DX009 (ip), vehicle: saline

Measured: T/C

CCOc1ccc(NC(=S)NC(=O)c2cccc([N+](=O)[O-])c2)cc1
inactive: dose: 100.0 mg/kg/injection, schedule: Q01DX001 (ip), vehicle: saline with Tween-80 93 % of control | dose: 100.0 mg/kg/injection, schedule: Q01DX009 (ip), vehicle: saline with Tween-80 92 % of control and 95 % of control | dose: 100.0 mg/kg/injection, schedule: Q04DX002 (ip), vehicle: saline with Tween-80 93 % of control and 95 % of control | [1] 98 % of control | dose: 200.0 mg/kg/injection, schedule: Q01DX001 (ip), vehicle: saline with Tween-80 101 % of control | dose: 200.0 mg/kg/injection, schedule: Q01DX009 (ip), vehicle: saline with Tween-80 92 % of control and 98 % of control | dose: 200.0 mg/kg/injection, schedule: Q04DX002 (ip), vehicle: saline with Tween-80 97 % of control and 107 % of control | [2] 96 % of control | dose: 400.0 mg/kg/injection, schedule: Q01DX001 (ip), vehicle: saline with Tween-80 102 % of control | dose: 400.0 mg/kg/injection, schedule: Q01DX009 (ip), vehicle: saline with Tween-80 97 % of control and 106 % of control | dose: 400.0 mg/kg/injection, schedule: Q04DX002 (ip), vehicle: saline with Tween-80 104 % of control and 107 % of control | [3] 91 % of control

CCCCCCCCC1SC1CCCCCCCC(=O)N1CCCN(C(=O)CCCCCCCC2SC2CCCCCCCC)C1 (stereo not drawn)
inactive: [1] 92 % of control | [2] 95 % of control | [3] 97 % of control

O=C(O)C1(O)CCCCC1
inactive: dose: 100.0 mg/kg/injection, schedule: Q01DX001 (ip), vehicle: saline 104 % of control | [4] 100 % of control | [5] 104 % of control | [6] 98 % of control | dose: 200.0 mg/kg/injection, schedule: Q01DX001 (ip), vehicle: saline 110 % of control | [7] 93 % of control | [8] 113 % of control | dose: 400.0 mg/kg/injection, schedule: Q01DX001 (ip), vehicle: saline 110 % of control | [9] 101 % of control

O=C(CCN1C(=O)c2ccccc2C1=O)c1ccc(O)cc1
inactive: [10] 97 % of control | [11] 98 % of control | [12] 91 % of control

CC1(C)CC[C@]2(C(=O)O)CC[C@]3(C)C(=CC[C@@H]4[C@@]5(C)CC[C@H](O)C(C)(C)[C@@H]5CC[C@]43C)[C@@H]2C1
inactive: dose: 50.0 mg/kg/injection, schedule: Q01DX009 (ip), vehicle: saline 94 % of control | dose: 100.0 mg/kg/injection, schedule: Q01DX001 (sc), vehicle: saline 103 % of control | [4] 94 % of control | [5] 97 % of control | dose: 200.0 mg/kg/injection, schedule: Q01DX001 (sc), vehicle: saline 103 % of control | [13] 97 % of control | [7] 97 % of control | dose: 400.0 mg/kg/injection, schedule: Q01DX001 (sc), vehicle: saline 103 % of control | dose: 400.0 mg/kg/injection, schedule: Q04DX002 (ip), vehicle: saline 94 % of control

O=C1CCC2CN3CCc4c([nH]c5ccccc45)C3CC2C1 (stereo not drawn)
inactive: dose: 75.0 mg/kg/injection, schedule: Q01DX001 (ip), vehicle: other 110 % of control

CCCCCCC(C)C1C(=O)NC(=S)NC1=O (stereo not drawn)
inactive: dose: 75.0 mg/kg/injection, schedule: Q01DX001 (ip), vehicle: carboxymethylcellulose (CMC) 93 % of control | dose: 150.0 mg/kg/injection, schedule: Q01DX001 (ip), vehicle: carboxymethylcellulose (CMC) 91 % of control | dose: 300.0 mg/kg/injection, schedule: Q01DX001 (ip), vehicle: carboxymethylcellulose (CMC) 94 % of control

COc1cc2c(c(OC)c1OC)-c1ccc(SC)c(=O)cc1C(N=Cc1ccccc1)CC2 (stereo not drawn)
inactive: [1] 106 % of control | [2] 90 % of control

CCOc1ccc(C2CCCCCC2OS(C)(=O)=O)cc1 (stereo not drawn)
inactive: dose: 100.0 mg/kg/injection, schedule: Q01DX001 (ip), vehicle: Klucel (hydroxypropylcellulose) (HPC) 105 % of control | dose: 100.0 mg/kg/injection, schedule: Q01DX009 (ip), vehicle: Klucel (hydroxypropylcellulose) (HPC) 95 % of control | dose: 100.0 mg/kg/injection, schedule: Q04DX003 (ip), vehicle: Klucel (hydroxypropylcellulose) (HPC) 97 % of control | dose: 200.0 mg/kg/injection, schedule: Q01DX001 (ip), vehicle: Klucel (hydroxypropylcellulose) (HPC) 96 % of control | dose: 200.0 mg/kg/injection, schedule: Q01DX009 (ip), vehicle: Klucel (hydroxypropylcellulose) (HPC) 98 % of control | dose: 200.0 mg/kg/injection, schedule: Q04DX003 (ip), vehicle: Klucel (hydroxypropylcellulose) (HPC) 103 % of control | dose: 400.0 mg/kg/injection, schedule: Q01DX001 (ip), vehicle: Klucel (hydroxypropylcellulose) (HPC) 100 % of control | dose: 400.0 mg/kg/injection, schedule: Q01DX009 (ip), vehicle: Klucel (hydroxypropylcellulose) (HPC) 93 % of control | dose: 400.0 mg/kg/injection, schedule: Q04DX003 (ip), vehicle: Klucel (hydroxypropylcellulose) (HPC) 101 % of control

COc1ccc(/C=C2/CSC/C(=C/c3ccc(OC)c(OC)c3)C2=O)cc1OC
inactive: [6] 103 % of control | [13] 86 % of control | [8] 94 % of control | [9] 94 % of control

CSC(=NC1CCCCC1)Nc1ccccc1
inactive: dose: 100.0 mg/kg/injection, schedule: Q01DX001 (ip), vehicle: other 98 % of control | dose: 200.0 mg/kg/injection, schedule: Q01DX001 (ip), vehicle: other 98 % of control | dose: 400.0 mg/kg/injection, schedule: Q01DX001 (ip), vehicle: other 88 % of control

CN(C)c1ccc2cc3ccc(N(C)C)cc3nc2c1
inactive: [10] 93 % of control | [11] 98 % of control | [12] 93 % of control | dose: 25.0 mg/kg/injection, schedule: Q04DX002 (ip), vehicle: saline with Tween-80 98 % of control | dose: 50.0 mg/kg/injection, schedule: Q04DX002 (ip), vehicle: saline with Tween-80 98 % of control
